Assay results taken from publication PMC11990879, “Anticandidal Activity of Lipopeptides Containing an LL-37-Derived Peptide Fragment KR12” (Molecules, 2025).
≈ marks a conversion by molar mass, not a printed value. Read-outs that look alike come from different tables or passages of the source. Marks after values point to notes of the source that are not given here. Where a SMILES comes first, the peptide text is derived from it. Where no end group is shown, it is not given here. The star is where a group is joined. Benzoyl(4-Ph) = O=C(c1ccc(-c2ccccc2)cc1)*; Octanoyl = CCCCCCCC(=O)*; Bz = O=C(c1ccccc1)*

Experiments:
human red blood cells = conditions: cited from earlier work
Excerpt: Table 2 Minimum inhibitory concentrations (MIC) and minimum fungicidal concentrations (MFC) determined for peptides and reference antifungals [g/L]. The highest antimicrobial activity is marked in green, medium values in yellow, while the weakest antifungal activity is marked in red. Minimum hemolytic concentration (MHC5%—causing hemolysis of 5% of human red blood cells) determined in previous stu | column: MHC5%

C. albicans ATCC 10231 [1] = assay: microbe, parasite or virus in culture; type: cell-based, Candida albicans; conditions: MIC wells and two higher concentrations seeded on DSA, 48 h, 25 °C, read visually, three times
Protocol: (§1) Fungal strains were purchased from the Polish Collection of Microorganisms (Polish Academy of Science, Wroclaw, Poland). Four reference strains of Candida (C. albicans ATCC 10231, C. glabrata ATCC 15126, C. lypolytica PCM 2680, and C. tropicalis PCM 2680) were cultured on the Dextrose Sabouraud Agar (DSA, Neogen, Lansing, MI, USA). Before performing the assays, the fungi were cultured in a Sabouraud dextrose broth (DSB, Neogen, Lansing, MI, USA) for 48 h under aerobic conditions at 25 °C. Afterward, the fungal cultures were centrifuged (2500 rpm, 10 min) and resuspended in the appropriate liquid medium for appropriate inoculums for the performed assays.
(§2) The strains cultured described in Section 4.1 were suspended in the Roswell Park Memorial Institute 1640 Medium (RPMI, Sigma-Aldrich, St. Louis, MO, USA) at an initial inoculum of ca. 5 × 10^3 CFU/mL. The stock solutions (1024 mg/L) of tested compounds in RPMI were added to 96-well polystyrene plates and diluted serially to well no. 10, leaving wells 11 and 12 for fertility and sterility controls. The tested Candida strains were exposed to graded concentrations (range 0.5–256 mg/L) of the lipopeptides and conventional antifungals (benzalkonium chloride, fluconazole, and nystatin) for 48 h under aerobic conditions at 25 °C. After incubation, the results were read visually.
(§3) Then the results were read visually. Both MIC as well as the MFC assays were performed threetimes on three different days.

C. tropicalis PCM 2680 [2] = assay: microbe, parasite or virus in culture; type: cell-based, Candida tropicalis
Protocol: as §1, §2

C. albicans ATCC 10231 [3] = assay: microbe, parasite or virus in culture; type: cell-based, Candida albicans
Protocol: as §1, §2

C. lypolytica PCM 2680 [4] = assay: microbe, parasite or virus in culture; type: cell-based, Candida lipolytica; conditions: RPMI 1640, inoculum ca. 5 × 10^3 CFU/mL, range 0.5–256 mg/L, 48 h, 25 °C, read visually, three times on three days
Protocol: as §1, §2

C. lypolytica PCM 2680 [5] = assay: microbe, parasite or virus in culture; type: cell-based, Candida lipolytica; conditions: MIC wells and two higher concentrations seeded on DSA, 48 h, 25 °C, read visually, three times
Protocol: as §1, §2, §3

C. glabrata ATCC 15126 [6] = assay: microbe, parasite or virus in culture; type: cell-based, Candida glabrata; conditions: MIC wells and two higher concentrations seeded on DSA, 48 h, 25 °C, read visually, three times
Protocol: as §1, §2, §3

C. glabrata ATCC 15126 [7] = assay: microbe, parasite or virus in culture; type: cell-based, Candida glabrata; conditions: first C. glabrata column; RPMI 1640, inoculum ca. 5 × 10^3 CFU/mL, range 0.5–256 mg/L, 48 h, 25 °C, read visually, three times on three days
Protocol: as §1, §2

C. tropicalis PCM 2680 [8] = assay: microbe, parasite or virus in culture; type: cell-based, Candida tropicalis; conditions: MIC wells and two higher concentrations seeded on DSA, 48 h, 25 °C, read visually, three times
Protocol: as §1, §2, §3

[9] = test system: Candida strains (C. albicans, C. glabrata, C. lipolytica, C. tropicalis); type: cell-based; conditions: 48 h
Protocol: as §1, §2, §3

[10] = test system: C. albicans biofilms cultured on polystyrene; type: cell-based, Candida albicans; conditions: biofilms cultured on polystyrene
Protocol: as §1
Fungal suspensions in DSB were added to the wells at initial inoculums of ca. 5 × 10^6 CFU/mL and incubated under aerobic conditions, at 25 °C for 24 h, 48 h, and 72 h, in order to grow candidal biofilms of different maturity. After the appropriate time of incubation, the wells were washed with phosphoric buffered (PBS), and fresh RPMI medium supplemented with antifungals and the lipopeptides at graded concentrations (range […]) were added. The fungal biofilms were exposed to the compounds for 24 h (aerobic conditions, 25 °C). After the exposure to antifungals, the content of the wells was aspirated and a 0.01% solution of resazurin (Sigma-Aldrich, St. Louis, MO, USA) in DSB was added. Resazurin (blue) was applied as a cell viability reagent, which upon contact with living cells is reduced to a pink resorufin. The samples with the dye were incubated for 1 h at 25 °C and the absorbance was measured at 570 and 600 nm with a microplate reader (Thermo Fisher Scientific, Waltham, MA, USA). The assays were performed four times on four different days. The results are presented as the means of the measured percentage of metabolic activity (MA) of fungi in the well when compared with positive (sample with Candida in DSB) and negative controls (pure DSB), which were taken as 100% and 0%, respectively. The MA of Candida in the samples was measured according to the following formula:MA(%) = (ΔAbs of sample − ΔAbs of negative control)/(ΔAbs of positive control − ΔAbs of negative control);(1) ΔAbs = absorbance at 570 nm − absorbance at 600 nm.(2)
The MBEC was taken as the lowest concentration of antifungal which allowed us to reduce the metabolism of fungal cells to 10% (or less) of the positive control.

[11] = no inhibition at the highest concentration applied

Compound: CC[C@H](C)[C@H](NC(=O)[C@H](CCCNC(=N)N)NC(=O)[C@H](CCC(N)=O)NC(=O)[C@@H](NC(=O)[C@@H](NC(=O)[C@H](CCCNC(=N)N)NC(=O)[C@H](CCCCN)NC(=O)c1ccccc1)[C@@H](C)CC)C(C)C)C(=O)N[C@@H](CCCCN)C(=O)N[C@@H](CC(=O)O)C(=O)N[C@@H](Cc1ccccc1)C(=O)N[C@@H](CC(C)C)C(=O)N[C@@H](CCCNC(=N)N)C(N)=O [VIII, Benzoic acid-KR12-NH2] (Bz-KRIVQRIKDFLR-NH2)
- MHC5% (minimum hemolytic concentration causing hemolysis of 5% of human red blood cells) (human red blood cells; human red blood cells, determined in previous studies, ref [13],[14]): >256 * g/L
- Minimum fungicidal concentration (MFC), C. albicans (C. albicans ATCC 10231 [1]): 64 mg/L (≈ 38.2 µM)
- Minimum inhibitory concentration (MIC), C. tropicalis (C. tropicalis PCM 2680 [2]; C. tropicalis, RPMI 1640, inoculum ca. 5 × 10^3 CFU/mL, range 0.5–256 mg/L, 48 h, 25 °C, read visually, three times on three days): 8 mg/L (≈ 4.78 µM)
- Minimum inhibitory concentration (MIC), C. albicans (C. albicans ATCC 10231 [3]; C. albicans, RPMI 1640, inoculum ca. 5 × 10^3 CFU/mL, range 0.5–256 mg/L, 48 h, 25 °C, read visually, three times on three days): 64 mg/L (≈ 38.2 µM)
- Minimum inhibitory concentration (MIC), C. lipolytica (C. lypolytica PCM 2680 [4]): 32 mg/L (≈ 19.1 µM)
- Minimum fungicidal concentration (MFC), C. lipolytica (C. lypolytica PCM 2680 [5]): 32 mg/L (≈ 19.1 µM)
- Minimum fungicidal concentration (MFC), C. glabrata (C. glabrata ATCC 15126 [6]): 256 mg/L (≈ 153 µM)
- Minimum inhibitory concentration (MIC), C. glabrata (C. glabrata ATCC 15126 [7]): 256 mg/L (≈ 153 µM)
- Minimum fungicidal concentration (MFC), C. tropicalis (C. tropicalis PCM 2680 [8]): 16 mg/L (≈ 9.55 µM)

Compound: CC[C@H](C)[C@H](NC(=O)[C@H](CCCNC(=N)N)NC(=O)[C@H](CCC(N)=O)NC(=O)[C@@H](NC(=O)[C@@H](NC(=O)[C@H](CCCNC(=N)N)NC(=O)[C@H](CCCCN)NC(=O)c1ccc(-c2ccccc2)cc1)[C@@H](C)CC)C(C)C)C(=O)N[C@@H](CCCCN)C(=O)N[C@@H](CC(=O)O)C(=O)N[C@@H](Cc1ccccc1)C(=O)N[C@@H](CC(C)C)C(=O)N[C@@H](CCCNC(=N)N)C(N)=O [XXV, 4-Phenylbenzoic acid-KR12-NH2] ({Benzoyl(4-Ph)}-KRIVQRIKDFLR-NH2)
- MHC5% (minimum hemolytic concentration causing hemolysis of 5% of human red blood cells) (human red blood cells): 32 g/L
- MIC, range over the tested strains [9]: 4 to 16 mg/L
- MBEC 24 h [10]: >512 * mg/L
- MBEC 48 h [10]: >512 * mg/L
- MBEC 72 h [10]: >512 * mg/L

Compound: CCCCCCCC(=O)NCCCC[C@H](NC(=O)CCCCCCC)C(=O)N[C@@H](CCCNC(=N)N)C(=O)N[C@H](C(=O)N[C@H](C(=O)N[C@@H](CCC(N)=O)C(=O)N[C@@H](CCCNC(=N)N)C(=O)N[C@H](C(=O)N[C@@H](CCCCN)C(=O)N[C@@H](CC(=O)O)C(=O)N[C@@H](Cc1ccccc1)C(=O)N[C@@H](CC(C)C)C(=O)N[C@@H](CCCNC(=N)N)C(N)=O)[C@@H](C)CC)C(C)C)[C@@H](C)CC [XVI, C8^α,C8^ε-KR12-NH2] (Octanoyl-K(Octanoyl)RIVQRIKDFLR-NH2)
- MHC5% (minimum hemolytic concentration causing hemolysis of 5% of human red blood cells) (human red blood cells): >256 * g/L
- Growth inhibition of C. tropicalis (MIC) (C. tropicalis PCM 2680 [2]; [11]): resistant
- Growth inhibition of C. albicans (MIC) (C. albicans ATCC 10231 [3]; [11]): resistant

Compound: KRIVQRIKDFLR-NH2 [X, KR12-NH2]
- MHC5% (minimum hemolytic concentration causing hemolysis of 5% of human red blood cells) (human red blood cells): >256 * g/L
- MBEC 24 h [10]: >512 * mg/L
- MBEC 48 h [10]: >512 * mg/L
- MBEC 72 h [10]: >512 * mg/L
